In US5208340A, “Process for producing an aryl-imido-peralkanoic acid by oxidizing the corresponding aryl-imido-alkanoic acid with hydrogen peroxide” (Ausimont S.p.A., priority 1990, dated 1993):

Assay: Solubility of PAC and PAP in halogenated solvents (Table 1)
Format: physicochemical
Conditions: for solubility in the particular halogenated solvents (in words): methylene chloride and trichloromethane
Description: The novel mechanism results in high conversion and yield under low temperature, low viscosity and internal system temperature control conditions. In addition, a very efficient product recovery can be obtained from the inorganic phase. Of course, the pressure should be such as to keep the system in the liquid phase.

| Solubility (Dichloromethane, at 14° C.) | Solubility (Dichloromethane, at 25° C.) | Solubility (Trichloromethane, at 14° C.) | Solubility (Trichloromethane, at 25° C.) | solubility in the particular halogenated solvents (in words) | Solubility (Dichloromethane, at 25° C., (**) Estimated value) | SMILES |
| --- | --- | --- | --- | --- | --- | --- |
| 51.1 g per 100 cm^3 of solvent | 67.3 g per 100 cm^3 of solvent | 52.3 g per 100 cm^3 of solvent | 67.9 g per 100 cm^3 of solvent | even more soluble |  | O=C(O)CCCCCN1C(=O)c2ccccc2C1=O [PAC, ε-phthalimidohexanoic acid] |
| 26.3 g per 100 cm^3 of solvent |  | 26.1 g per 100 cm^3 of solvent | 34.9 g per 100 cm^3 of solvent | soluble | 35.2 g per 100 cm^3 of solvent | O=C(CCCCCN1C(=O)c2ccccc2C1=O)OO [PAP, ε-phthalimidoperhexanoic acid] |
